This passage reports IC50 results from patent publication US8686155B2, “Aurora kinase modulators and method of use” (Amgen Inc., priority 2006, dated 2014).

Like-named read-outs stand apart in the source and are kept apart here.

The target in experiment [1] is T1, AuroraA-TPX2 (Homo sapiens, UniProt O14965).
T1 construct: 20 μL of AuroraA-TPX2 KD GST; GST
T1 sequence (O14965 133-383 limits assumed): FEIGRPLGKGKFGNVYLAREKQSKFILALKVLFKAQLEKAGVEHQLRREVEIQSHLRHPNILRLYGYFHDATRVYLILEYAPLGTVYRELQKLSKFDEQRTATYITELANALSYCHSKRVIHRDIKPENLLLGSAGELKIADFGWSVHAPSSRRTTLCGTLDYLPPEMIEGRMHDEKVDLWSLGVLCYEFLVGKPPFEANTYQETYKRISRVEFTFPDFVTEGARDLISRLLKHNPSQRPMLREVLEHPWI
T1 sequence (Q9ULW0 1-43 partner limits assumed): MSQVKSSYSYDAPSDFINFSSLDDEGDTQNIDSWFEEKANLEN
Nature of the experiment: AuroraA-TPX2 Homogeneous Time Resolved Fluorescent (HTRF) kinase assay. Type of experiment: biochemical. The method, then:
AuroraA-TPX2-Homogeneous Time Resolved Fluorescent (HTRF) Kinase Assay
The Aurora-A HTRF assay begins with Aurora-A in the presence of ATP phosphorylating the biotinylated peptide PLK. The reaction incubates for about 120 min. Detection reagents are added to quench the reaction. These agents stop the reaction by diluting out the enzyme and chelating the metals due to the presence of EDTA. After addition, the assay is incubated overnight to allow the detection reagents to equilibrate.
The final concentration of PLK is about 1 μM. […] Buffer conditions are as follows: 60 mM HEPES pH 7.5, 25 mM NaCl, 10 mM MgCl, 2 mM DTT, 0.05% BSA.
The assay is quenched and stopped with 160 μL of detection reagent. Detection reagents are as follows: Buffer made of 50 mM Tris, pH 7.5, 100 mM NaCl, 3 mM EDTA, 0.05% BSA, 0.1% Tween20. Added to this buffer prior to reading is Steptavidin allophycocyanin (SA-APC) at a final conc in the assay of 0.0005 mg/mL, and europilated anti-phosphoPLK Ab (Eu-anti-PLK) at a final conc of 0.02 nM.
The assay plate is read in either a Discovery or a RubyStar. The eu-anti-PLK is excited at 320 nm and emits at 615 nm to excite the SA-APC which in turn emits at 655 nm.
A general note: In TR-FRET formats the signal depends on donor and acceptor labels being close together.

The target in experiment [2] is T2, AuroraB (Homo sapiens, UniProt Q96GD4).
T2 construct: 20 μL of AuroraB FL His; His
Nature of the experiment: AuroraB Homogeneous Time Resolved Fluorescent (HTRF) kinase assay. It is filed as biochemical. The method, then: AuroraB-Homogeneous Time Resolved Fluorescent (HTRF) Kinase Assay:
The AuroraB HTRF assay begins with AuroraB in the presence of ATP phosphorylating the biotinylated peptide Histone H3. The reaction incubates for about 90 min. the reaction is quentched by addition of detection reagents, which stop the reaction by diluting out the enzyme and chelating the metals due to the presence of EDTA. After addition, the assay is incubated for about 60 min to allow detection reagents to equilibrate.
The AuroraB HTRF assay comprises 1 μL of compound in 100% DMSO, 20 μL of ATP and biotinylated Histone H3, and 20 μL of AuroraB FL His for a final volume of 41 μL. The final concentration of Histone H3 is 0.1 μM. The final concentration of ATP is 23 μM (Km(app)=23 μM+/−2.6) and the final concentration of AuroraB is 400 pM. Buffer conditions are as follows: 50 mM HEPES pH 7.5, 5 mM NaCl, 0.5 mM MgCl, 0.5 mM MnCl, 2 mM DTT, 0.05% BSA.
The assay is quenched and stopped with 160 μl, of detection reagent. Detection reagents are as follows: Buffer made of 50 mM Tris, pH 7.5, 100 mM NaCl, 3 mM EDTA, 0.05% BSA, 0.1% Tween20. Added to this buffer prior to reading is Steptavidin allophycocyanin (SA-APC) at a final conc in the assay of 0.001 mg/mL, and europilated anti-phosphoHistoneH3 Ab (Eu-anti-His H3) at a final conc of 0.064 nM.
The assay plate is read in either a Discovery or a RubyStar. The eu-anti-HisH3 is excited at 320 nm and emits at 615 nm to excite the SA-APC which in turn emits at 655 nm. The ratio of SA-APC at 655 nm (excited due to close proximity to the Eu-anti-H HisH3 because of phosphorylation of the peptide) to free Eu-anti-HisH3 at 615 nm will give substrate phosphorylation.

[3] abbreviates: class symbols, read-out: AurA/TPX2_IC50_IP (Avg).
Where [4] appears, read: class symbols, read-out: AurB_IC50_IP (Avg).
[5] abbreviates: numeric values, unit inferred, read-out: AurA/TPX2_IC50_IP (Avg).
Setting [6] is: numeric values, unit inferred, read-out: AurB_IC50_IP (Avg).
[7] abbreviates: ATP about 1 μM, biotinylated peptide PLK, read-out: average activity in the Aurora kinase A HTRF assay.
Where [8] appears, read: ATP 23 μM, biotinylated peptide Histone H3, read-out: average activity in the Aurora kinase B HTRF assay.

T2 sequence (Q96GD4 whole entry): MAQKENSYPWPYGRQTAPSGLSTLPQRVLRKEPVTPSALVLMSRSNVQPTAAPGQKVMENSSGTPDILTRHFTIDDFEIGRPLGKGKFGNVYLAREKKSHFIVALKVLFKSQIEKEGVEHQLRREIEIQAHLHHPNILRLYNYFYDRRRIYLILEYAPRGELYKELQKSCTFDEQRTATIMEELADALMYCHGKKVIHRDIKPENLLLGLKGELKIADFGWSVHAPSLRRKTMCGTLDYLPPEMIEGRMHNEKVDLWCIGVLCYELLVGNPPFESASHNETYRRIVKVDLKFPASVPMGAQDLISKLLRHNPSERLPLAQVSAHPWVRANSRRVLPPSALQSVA

Take `Cc1cc(-c2ccccc2)nnc1Nc1ccc(Oc2ncccc2-c2ccnc(N)c2)cc1` [compound 418]: the IC50 in experiment [1] (setting [3]) and in experiment [2] (setting [4]) was no more than 100 nM in each case.

As to `COCc1cc(-c2ccccc2)nnc1Nc1ccc(Oc2ncccc2-c2ccnc(N)n2)cc1` [compound 446], the IC50 in experiment [1] (setting [3]) and in experiment [2] (setting [4]) was no more than 100 nM in each case.

On to `N#Cc1cccc(-c2ccncc2)c1Oc1ccc(Nc2nnc(-c3ccccc3)c3ccccc23)cc1` [compound 436], for which the IC50 was 100 to 500 nM in experiment [1] (setting [3]) and no more than 100 nM in experiment [2] (setting [4]).

Regarding `Cc1csc(-c2cc(C)c(Nc3ccc(Oc4ncccc4-c4ccnc(N)c4)cc3)nn2)n1` [compound 434], the results for the IC50 in experiment [1] (setting [5]) and in experiment [2] (setting [6]) were 98.6 nM and 9.5 nM, respectively.

On to `CC(C)c1nnc(Nc2ccc(Oc3ncccc3-c3ccnc(N)n3)nc2)c2ccccc12` [compound 269], for which, in experiment [1] (setting [3]), the IC50 was in the range of 100 to 500 nM.

For the compound `COc1cccc(-c2nnc(Nc3ccc(Oc4ncccc4-c4ccnc(N)c4)cc3)c3ccccc23)c1` [compound 441], the IC50 in experiment [1] (setting [3]) and in experiment [2] (setting [4]) was 100 to 500 nM throughout.

As for `c1ccc(-c2nnc(Nc3ccc(Oc4ncncc4-c4ccncc4)cc3)c3ccccc23)cc1` [Example 243, 4-phenyl-N-(4-(5-(pyridin-4-yl)pyrimidin-4-yloxy)phenyl)phthalazin-1-amine], the IC50 in experiment [1] (setting [7]) and in experiment [2] (setting [8]) was no more than 100 nM throughout.

For the compound `CCc1cc(-c2ccccc2)nnc1Nc1ccc(Oc2ncccc2-c2ccnc(N)n2)cc1` [compound 435], the IC50 in experiment [1] (setting [3]) and in experiment [2] (setting [4]) was no more than 100 nM in each case.

For `Cc1cc(-c2ccccc2)nnc1Nc1ccc(Oc2ncccc2-c2ccnc(NCCCC(=O)O)n2)cc1` [compound 430], the IC50 in experiment [1] (setting [3]) and in experiment [2] (setting [4]) was no more than 100 nM in each case.

`Cc1csc(-c2nnc(Nc3ccc(Oc4ncccc4-c4ccnc(N)c4)cc3)c3ccccc23)c1` [compound 416]: the values for the IC50 in experiment [1] (setting [5]) and in experiment [2] (setting [6]) were 54.1 nM and 14.5 nM, respectively.

As for `CNc1nccc(-c2cccnc2Oc2ccc(Oc3nnc(-c4ccccc4)c4ccccc34)cc2)n1` [Example 244, N-methyl-4-(2-(4-(4-phenylphthalazin-1-yloxy)phenoxy)pyridin-3-yl)pyrimidin-2-amine], the IC50 in experiment [1] (setting [7]) and in experiment [2] (setting [8]) was no more than 100 nM in each case.

Turning to `CNc1cc(-c2cnccc2Oc2ccc(Nc3nnc(-c4ccccc4)c4ccccc34)cc2)ccn1` [Example 242, N-(4-(3-(2-(methylamino)pyridin-4-yl)pyridin-4-yloxy)phenyl)-4-phenylphthalazin-1-amine], the IC50 in experiment [1] (setting [7]) and in experiment [2] (setting [8]) was no more than 100 nM each time.

Consider `Oc1cccc(-c2ccncc2)c1Oc1ccc(Nc2nnc(-c3ccccc3)c3ccccc23)cc1` [compound 447], for which the IC50 in experiment [2] (setting [4]) is 500 to 2500 nM.

As to `O=c1cc(-c2cccnc2Oc2ccc(Nc3nnc(-c4ccccc4)c4ccccc34)cc2)cc[nH]1` [compound 432], in experiment [2] (setting [4]), the IC50 lay within 500 to 2500 nM.

With `COc1ccccc1-c1nnc(Nc2ccc(Oc3ncccc3-c3ccnc(N)n3)cc2)c2ccccc12` [compound 437], the IC50 in experiment [1] (setting [3]) and in experiment [2] (setting [4]) was no more than 100 nM in each case.

Consider `Nc1nccc(-c2cccnc2Oc2ccc(Nc3nnc(-c4ccccc4)c4ccccc34)cn2)n1` [compound 415], for which the IC50 in experiment [1] (setting [3]) and in experiment [2] (setting [4]) was no more than 100 nM throughout.

For `CCCc1cc(-c2ccccc2)nnc1Nc1ccc(Oc2ncccc2-c2ccnc(N)n2)cc1` [compound 445], the values for the IC50 in experiment [1] (setting [5]) and in experiment [2] (setting [6]) were 23.5 nM and 3.1 nM, respectively.

Take `Nc1cc(-c2cccnc2Oc2ccc(Nc3nnc(-c4ccccc4)c4ccccc34)cn2)ccn1` [compound 431]: the IC50 in experiment [1] (setting [3]) and in experiment [2] (setting [4]) was no more than 100 nM each time.

Turning to `COCc1cccc(-c2nnc(Nc3ccc(Oc4ncccc4-c4ccnc(N)n4)cc3)c3ccccc23)n1` [compound 298], the IC50 in experiment [1] (setting [3]) and in experiment [2] (setting [4]) was no more than 100 nM in each case.

As to `Cc1csc(-c2cc(C)c(Nc3ccc(Oc4ncccc4-c4ccnc(N)c4)cc3)nn2)c1` [compound 419], the IC50 in experiment [1] (setting [3]) and in experiment [2] (setting [4]) was no more than 100 nM in each case.
